For 31 molecules, inhibition and Activity results are on record in ChEMBL document CHEMBL5143558, “Synthesis of sorbicillinoid analogues with anti-inflammation activities” (Bioorg Med Chem, 2022).

Structures are written as SMILES. The source made the active and inactive calls. No cut-off for these calls is given here.

The test system of series [1] is RAW264.7. Nature of the series: Anti-inflammatory activity in mouse RAW264.7 cells assessed as inhibition of LPS-induced p-NFkappaB protein expression at 10 uM incubated for 24 hrs by Western blot analysis. It is filed as functional, cell-based. Background: Immunoblotting shows a protein as a band on a membrane.
Series [2] can be described thus: Toxicity in mouse RAW264.7 cells assessed as reduction in cell vaibility at 10 uM. It is filed as cell-based. The settings on record: raw264.7, 10 µM.
Series [3] deals with RAW264.7. Nature of the series: Anti-inflammatory activity in mouse RAW264.7 cells assessed as inhibition of LPS-induced NO production at 20 uM. The series is classed as functional, cell-based.
The subject of series [4] is RAW264.7. Nature of the series: Anti-inflammatory activity in mouse RAW264.7 cells assessed as inhibition of LPS-induced iNOS protein expression at 10 uM incubated for 24 hrs by Western blot analysis. The series is classed as functional, cell-based.
Series [5] relates to RAW264.7. Nature of the series: Anti-inflammatory activity in mouse RAW264.7 cells assessed as inhibition of LPS-induced NO production at 10 uM. The series is classed as functional, cell-based.
In series [6] the test system is RAW264.7. Nature of the series: Anti-inflammatory activity in mouse RAW264.7 cells assessed as inhibition of LPS-induced iNOS protein expression at 1 to 20 uM incubated for 24 hrs by Western blot analysis. It is filed as functional, cell-based. Particulars: dose 1-20 µM, DDE = dose-dependent effect.
Series [7] is described as follows: Toxicity in mouse RAW264.7 cells assessed as reduction in cell vaibility at 20 uM incubated for 24 hrs. It is filed as cell-based. Particulars: raw264.7, 24 h.
Series [8] relates to RAW264.7. Nature of the series: Anti-inflammatory activity in mouse RAW264.7 cells assessed as inhibition of LPS-induced NO production at 1 to 20 uM incubated for 24 hrs. The series is classed as functional, cell-based. The settings on record: dose 1-20 µM, DDE = dose-dependent effect.

On to `Cc1cc(C(=O)CCc2ccccc2)c(O)c(C)c1O`, for which the inhibition entry in the series with RAW264.7 [1] is “Active”. Further, the Activity entry in series [2] is recorded as “Non-Toxic”.
For the molecule `COc1cc(/C=C/C(=O)CC(=O)/C=C/c2ccc(O)c(OC)c2)ccc1O`, the inhibition result in the series on RAW264.7 [3] is “Active”.
Take `COc1cc(OC)c(C(=O)/C=C/c2ccccc2)cc1C`: the inhibition result with RAW264.7 [4] and with RAW264.7 [5] was “Active” throughout. The Activity result in series [2] was “Non-Toxic”.
Consider `COc1cc(OC)c(C(=O)/C=C/c2ccc(F)cc2)cc1C`, for which the inhibition entry in the series on RAW264.7 [4] and in the series on RAW264.7 [5] was “Active” in each case. Besides, the Activity result in series [2] is “Non-Toxic”.
On to `COc1cc(O)c(C(=O)/C=C/c2ccccc2)cc1C`, for which the inhibition entry in the series on RAW264.7 [4] and in the series with RAW264.7 [5] was “Active” in each case. Further, the Activity entry in series [2] was “Non-Toxic”.
`CC(C)=CC(=O)Oc1c(C)cc(C(=O)C=C(C)C)c(O)c1C`: the inhibition result with RAW264.7 [4] and with RAW264.7 [5] was “Active” each time. Moreover, in series [2], the Activity entry is recorded as “Non-Toxic”.
Consider `Cc1cc(C(=O)/C=C/c2ccc(F)cc2)c(O)c(C)c1OC(=O)/C=C/c1ccc(F)cc1`, for which, in the series on RAW264.7 [4], the inhibition entry was “Active”. Also, in series [2], the Activity entry is “Non-Toxic”.
Take `Cc1ccc(/C=C/C(=O)c2cc(C)c(O)c(C)c2O)cc1`: the inhibition entry in the series on RAW264.7 [4] and with RAW264.7 [5] was “Active” each time. Moreover, in series [2], the Activity entry is on record as “Non-Toxic”.
Take `COc1ccc(/C=C/C(=O)c2cc(C)c(O)c(C)c2O)cc1`: the inhibition result with RAW264.7 [4] and with RAW264.7 [5] was “Active” each time. Also, the Activity entry in series [2] is “Non-Toxic”.
Regarding `Cc1cc(C(=O)/C=C/c2ccccc2)c(O)c(C)c1O`, the inhibition entry with RAW264.7 [4], with RAW264.7 [1] and in the series on RAW264.7 [5] was “Active” each time. Further, the Activity result in series [2] is “Non-Toxic”.
Take `Cc1cc(C(=O)/C=C/c2ccc(F)cc2)c(O)c(C)c1O`: the inhibition entry in the series on RAW264.7 [6] and with RAW264.7 [8] was “Dde” throughout. The Activity result in series [7] and in series [2] was “Non-Toxic” in each case. The inhibition entry with RAW264.7 [4] and in the series on RAW264.7 [5] was “Active” in each case.
Turning to `C/C=C/C(=O)c1cc(C)c(OC)cc1OC`, the inhibition result in the series with RAW264.7 [4] and with RAW264.7 [5] was “Active” each time. Also, the Activity result in series [2] is reported as “Non-Toxic”.
As for `C/C=C/C=C/C(=O)Oc1ccc(C)c(OC(=O)/C=C/C=C/C)c1C`, in series [2], the Activity entry is on record as “Non-Toxic”.
With `COc1cc(OC)c(C(=O)/C=C/c2cc(OC)c(OC)c(OC)c2)cc1C`, the inhibition entry with RAW264.7 [4] and in the series with RAW264.7 [5] was “Active” each time. The Activity entry in series [2] is recorded as “Non-Toxic”.
As to `C/C=C/C=C/C(=O)Oc1c(C)cc(C(=O)/C=C/C=C/C)c(O)c1C`, the inhibition result with RAW264.7 [4] and with RAW264.7 [5] was “Active” each time. In addition, the Activity entry in series [2] is on record as “Non-Toxic”.
On to `Cc1cc(C(=O)/C=C/c2ccccc2)c(O)cc1O`, for which the inhibition result in the series on RAW264.7 [4] and in the series on RAW264.7 [5] was “Active” each time. The Activity result in series [2] is recorded as “Non-Toxic”.
As to `Cc1ccc(OC(=O)/C=C/c2ccc(Cl)cc2)c(C)c1OC(=O)/C=C/c1ccc(Cl)cc1`, the inhibition result with RAW264.7 [4] and in the series with RAW264.7 [5] was “Active” each time. Also, the Activity entry in series [2] was “Non-Toxic”.
As for `C/C=C/C(=O)c1cc(C)c(OC)c(C)c1OC`, the inhibition entry with RAW264.7 [4] and in the series on RAW264.7 [5] was “Active” in each case. In addition, the Activity result in series [2] is listed as “Non-Toxic”.
As to `C[C@]12CCC(=O)C=C1CC[C@@H]1[C@@H]2[C@@H](O)C[C@@]2(C)[C@H]1CC[C@]2(O)C(=O)CO`, in the series with RAW264.7 [3], the inhibition entry was “Active”.
In the case of `CC(C)=CC(=O)Oc1ccc(C)c(OC(=O)C=C(C)C)c1C`, in the series on RAW264.7 [1], the inhibition result was “Active”. Also, the Activity result in series [2] was “Non-Toxic”.
`COc1cc(/C=C/C(=O)c2cc(C)c(OC)c(C)c2OC)cc(OC)c1OC`: the inhibition result in the series on RAW264.7 [4] and in the series on RAW264.7 [5] was “Active” each time. Besides, the Activity entry in series [2] is “Non-Toxic”.
As for `Cc1cc(C(=O)/C=C/c2ccc(F)cc2)c(O)cc1O`, the inhibition entry in the series with RAW264.7 [4] and in the series with RAW264.7 [5] was “Active” in each case. In series [2], the Activity result is on record as “Non-Toxic”.
As for `COc1ccc(/C=C/C(=O)c2cc(C)c(OC)cc2OC)cc1`, the Activity entry in series [2] is reported as “Non-Toxic”.
With `C/C=C/C(=O)c1cc(C)c(O)cc1O`, the inhibition entry with RAW264.7 [4] and with RAW264.7 [5] was “Active” each time. In series [2], the Activity result is given as “Non-Toxic”.
Turning to `C/C=C/C=C/C(=O)c1cc(C)c(O)c(C)c1O`, the inhibition entry in the series on RAW264.7 [1] and in the series on RAW264.7 [5] was “Active” throughout. Besides, the Activity result in series [2] was “Non-Toxic”.
Turning to `COc1cc(O)c(C(=O)/C=C/c2ccc(F)cc2)cc1C`, the inhibition result in the series on RAW264.7 [4] and with RAW264.7 [5] was “Active” each time. Besides, in series [2], the Activity result is listed as “Non-Toxic”.
Consider `COc1cc(/C=C/C(=O)c2cc(C)c(O)c(C)c2O)cc(OC)c1OC`, for which the inhibition result in the series on RAW264.7 [6] and with RAW264.7 [8] was “Dde” throughout. Moreover, the Activity result in series [7] and in series [2] was “Non-Toxic” each time. Also, the inhibition result with RAW264.7 [4] and with RAW264.7 [5] was “Active” throughout.
As for `C/C=C/C(=O)c1cc(C)c(O)c(C)c1O`, the inhibition entry in the series on RAW264.7 [4] and in the series on RAW264.7 [5] was “Active” in each case. Also, in series [2], the Activity result is recorded as “Non-Toxic”.
On to `Cc1cc(C(=O)/C=C/c2ccc(Cl)cc2)c(O)c(C)c1OC(=O)/C=C/c1ccc(Cl)cc1`, for which the inhibition entry in the series on RAW264.7 [4] was “Active”. The Activity entry in series [2] is reported as “Non-Toxic”.
`C/C=C/C(=O)Oc1c(C)cc(C(=O)/C=C/C)c(O)c1C`: the inhibition result with RAW264.7 [4] and in the series on RAW264.7 [5] was “Active” throughout. Also, the Activity result in series [2] is “Non-Toxic”.
As to `Cc1cc(C(=O)/C=C/c2ccc3c(c2)OCO3)c(O)c(C)c1O`, the inhibition entry in the series on RAW264.7 [4] was “Active”. Moreover, in series [2], the Activity entry is reported as “Non-Toxic”.
